Several values for one entry are separate records, joined by “and”; a condition that tells them apart may be missing. Equal values may be shown once. Marks after values point to notes of the source that are not given here.
Experiments:
[1] = ORAC (Oxygen Radical Absorbance Capacity) antioxidant activity; format: biochemical; conditions: for antioxidant activity in comparison with trolox: ORAC
Text: The ORAC (Oxygen Radical Absorbance Capacity) method, described in Cao, G., Alessio, H. M., Cutler, R. G. Free radical Biology & Medecine 1993, 14: 303-311<<Oxygen-Radical Absorbance Capacity assay for antioxydants>> and Benderitter, M., Vincent-Genid, L., Pouget, J. P., Voisin, P. Radiation Research 2003; 159 (4): 471-483 <<The cell membrane as a biosensor of oxydative stress induced by radiation exposure:multiparameter investigation>>, has been used for measuring the anti-oxidant capability of the compounds of the invention.
By convention, the ORAC antioxidant activity of any molecule is measured in comparison with a recognized reference which is an analog of vitamin E, the trolox (6-hydroxy-2,5,7,8-tetramethylchroman-2-carboxylic acid), the anti-oxidant capability of 1 μM (micro mole) of trolox corresponding to 1 ORAC unit.
The ORAC values are commonly reported in μmol TE/g (in micromole of Trolox Equivalent per gram of product to be tested).
Given these definitions, the trolox has an ORAC index of about 3995 units.
The ORAC values of the compounds 26 and 34 have been measured (average of 3 measurements).

[2] = tested on: normal human dermal fibroblasts; test: Neo synthesis of elastin in monolayer cultures of normal human dermal fibroblasts; format: cell-based; conditions: 10 ng/ml, 96 hours
Method: (§1) The test system consists of monolayers of adult normal human dermal fibroblasts obtained by cultivating cells collected from a tummy tuck carried out on a person.
The used reference activator is the ascorbic acid at 100 μg/ml.
The cells have been incubated for 96 hours in the absence (control) or in the presence of the reference product or of increasing concentrations of the active ingredient that is being tested (10 ng/ml; 100 ng/ml; 500 ng/ml).
(§2) The compound to be tested is solubilized in 1 mg/ml in DMSO, then diluted in the cells incubation medium, with a constant concentration of 0.1% (v/v) in DMSO.
Upon completion of the incubation period, the elastin contained in the incubation medium of the explants has been quantified by a spectrophotometric method.
Upon completion of the incubation period, the proteins contained in the cellular lysate have been quantified by a spectrophotometric method (Bradford method—Bradford M. (1976) Anal. Biochem., 72, 248-254).
The results are given in the form of μg of elastin per mg of protein (average+/− the standard deviation, S.D.).

[3] = tested on: normal human dermal fibroblasts; test: Production of progerin in monolayer cultures of normal human dermal fibroblasts (ELISA); format: cell-based; conditions: for Progerin % DMSO / Progerin Average / Progerin, individual values / Progerin Difference (%): 96 hours; for Progerin Difference (%): vs DMSO; for neo synthesis of progerin: under the retained experimental conditions
Text: In order to study the influence of the compounds of the invention on the concentration of progerin in the cells, the assay method described by C. Verdy, J.-E. Branka and N. Mekideche in <<Quantitative assessment of lactate and progerine production in normal human cutaneous cells during normal ageing: effect of an alaria esculenta extract>>, Int. J. Cosmetic Science, 2011, 1-5, has been used.
as §1
Insulin at 10 nM has been used as a reference product in this study. […]
as §2
Upon completion of the incubation period, on the one hand, the progerin has been quantified in the cellular lysates (obtained by ultrasonic action) through a sensitive and specific ELISA assay, and on the other hand, the proteins that are contained in the cellular lysates have been quantified by a spectrophotometric method (Bradford method—Bradford M. (1976) Anal. Biochem., 72, 248-254).
(§3) The statistical significance of the differences that have been observed between the <<Control>> and the <<reference product>> conditions, has been assessed through a Student test. The statistical significance of the differences that have been observed between the <<Check>> and the <<test products>> conditions, has been assessed through a one-way analysis of variance (One Way ANOVA) followed by a Holm-Sidak test (*:p<0.05).

[4] = tested on: explants of adipose tissues; test: Slimming effect: glycerol released in culture medium of adipose tissue explants; format: cell-based, human
Method: The activity of the compounds of the invention on the adipocytes has been assessed. To do so, tests have been carried out on explants of adipose tissues that are kept alive according to the following experimental protocol. The products to be tested are introduced in the culture medium. After 9 days of treatment, the activity is assessed through an assay of the glycerol released in the culture medium. In order to be able to compare the potential activity of the molecules, caffeine (Sigma ref C-0750 batch 127F0396), which is known for its activity on the adipocytes (Studlar M. […] The explants are prepared from a tummy tuck ([…]-AB-40) carried out on a donor. 54 explants of tissues have been prepared and kept alive in a medium which is supplemented with penicillin/streptomycin antibiotics (Gibco ref 15140 batch 918578) at 37° C. and with 5% of CO2. The treatment has been carried out, on 3 explants, by incorporating 100 μl of the product (which is in turn at a 2% concentration in the adequate solvent, DMSO) in 2 ml of the culture medium on days J0, J2, J3, J5 and J7. Caffeine has been diluted to the desired concentration in the culture medium on these same days. The control explants have undergone no treatment. On J0, the 3 explants have been collected and frozen at -80° C. On J9, the remaining explants have been collected and preserved under the same conditions. The extraction of lipids from the culture medium has been carried out according to a tested procedure. The assay of the glycerol of the culture medium has been carried out using a glycerol assay kit (Megazyme, K-GROL) in the form of 96-well microplates and reading has been made at 340 nm with a Tecam Infinite M200 microplate reader associated to the Magellan software.

[5] = tested on: normal human dermal fibroblasts; test: Production of type I pro-collagen in monolayer cultures of normal human dermal fibroblasts (E.I.A.); format: cell-based; conditions: 48 hours; for Procollagen Difference (%): vs DMSO
Method: as §1
The used reference activator is the Transforming Growth Factor β (TGF-β) at 1 ng/ml. […]
as §2
Upon completion of the incubation period, the type I pro-collagen contained in the fibroblasts incubation media has been quantified using a sensitive and specific E.I.A. kit.
Upon completion of the incubation period, the proteins contained in the cellular lysates have been quantified by a spectrophotometric method (Bradford method—Bradford M. (1976) Anal. Biochem., 72, 248-254).
as §3
The results are given in the form of μg of type I pro-collagen per mg of protein (average+/− the standard deviation, S.D.) and are reported in the following Table 5.

COc1cc(/C=C/C(=O)NCCCc2ccccc2)cc(OC)c1OC(C)=O [Compound 26, 4-acetoxy-3,5-dimethoxy-N-(3-phenylpropyl)-cinnamamide]
melting point: 132 °C
antioxidant activity in comparison with trolox [1]: slightly higher

COc1ccc2[nH]cc(CCNC(=O)/C=C/c3cc(OC)c(OC(C)=O)c(OC)c3)c2c1 [Compound 31, 4-acetoxy-3,5-dimethoxy-N-(5-methoxytryptamyl)-cinnamamide]
melting point: 148 °C
ORAC Antioxidant activity ([1]; average of 3 measurements): 4874 ± 216 μmol TE/g

CCCCCCCCCCCCCCCCNC(=O)/C=C/c1cc(OC)c(OC(C)=O)c(OC)c1 [Compound 22]
increase of the neo synthesis of elastin [2]: +16.7%
Progerin % DMSO ([3]; 10 ng/ml): 75.4%
Progerin Average ([3]; 10 ng/ml): 837.7 ng/mg of protein
Progerin, individual values ([3]; 10 ng/ml): 880.7 ng/mg of protein and 801.5 ng/mg of protein and 830.7 ng/mg of protein
Progerin Difference (%) ([3]; 10 ng/ml): −24.6%
Progerin % DMSO ([3]; 100 ng/ml): 52.9%
Progerin Average ([3]; 100 ng/ml): 586.9* ng/mg of protein
Progerin, individual values ([3]; 100 ng/ml): 711.0 ng/mg of protein and 548.8 ng/mg of protein and 500.9 ng/mg of protein
Progerin Difference (%) ([3]; 100 ng/ml): −47.1%
Progerin % DMSO ([3]; 500 ng/ml): 67.8%
Progerin Average ([3]; 500 ng/ml): 752.5 ng/mg of protein
Progerin, individual values ([3]; 500 ng/ml): 967.8 ng/mg of protein and 727.4 ng/mg of protein and 562.4 ng/mg of protein
Progerin Difference (%) ([3]; 500 ng/ml): −32.2%
neo synthesis of progerin [3]: significantly decrease
Glycerol % in comparison with caffeine ([4]; after 9 days of treatment): 124%
slimming action higher than that of caffeine ([4]; after 9 days of treatment): 24%
slimming activity in comparison with caffeine ([4]; after 9 days of treatment): enhanced slimming activity
Glycerol Average ([4]; glycerol released in culture medium after 9 days, 100 μl of 2% product in DMSO in 2 ml medium on J0, J2, J3, J5, J7, 3 explants): 0.114 mg/mL

Cc1c(C)c2c(c(C)c1O)CCC(C)(C(=O)O)O2 (stereo not shown) [Trolox, 6-hydroxy-2,5,7,8-tetramethylchroman-2-carboxylic acid, reference compound]
ORAC index ([1]; reference, given the definitions): about 3995 units
ORAC Antioxidant activity ([1]; reference, value follows from the definition of the ORAC unit): 3995 μmol TE/g

COc1cc(/C=C/C(=O)NCCc2ccc(O)cc2)cc(OC)c1OC(C)=O [Compound 36, 4-acetoxy-3,5-dimethoxy-N-(4′-hydroxyphenylethyl)-cinnamamide]
increase of the neo synthesis of elastin [2]: +63.7%
Procollagen % DMSO ([5]; 50 ng/ml): 121.5%
Procollagen Average ([5]; 50 ng/ml): 63.7* pg/mg of protein
Procollagen, individual values ([5]; 50 ng/ml): 68.1 pg/mg of protein and 57.8 pg/mg of protein and 65.3 pg/mg of protein
Procollagen Difference (%) ([5]; 50 ng/ml): 21.5%
Procollagen % DMSO ([5]; 500 ng/ml): 121.8%
Procollagen Average ([5]; 500 ng/ml): 63.9* pg/mg of protein
Procollagen, individual values ([5]; 500 ng/ml): 59.2 pg/mg of protein and 65.1 pg/mg of protein and 67.2 pg/mg of protein
Procollagen Difference (%) ([5]; 500 ng/ml): 21.8%
Procollagen % DMSO ([5]; 5000 ng/ml): 129.0%
Procollagen Average ([5]; 5000 ng/ml): 67.7* pg/mg of protein
Procollagen, individual values ([5]; 5000 ng/ml): 73.8 pg/mg of protein and 64.8 pg/mg of protein and 64.4 pg/mg of protein
Procollagen Difference (%) ([5]; 5000 ng/ml): 29.0%
Progerin % DMSO ([3]; 50 ng/ml): 84.0%
Progerin Average ([3]; 50 ng/ml): 932.6 ng/mg of protein
Progerin, individual values ([3]; 50 ng/ml): 1552.2 ng/mg of protein and 690.1 ng/mg of protein and 555.6 ng/mg of protein
Progerin Difference (%) ([3]; 50 ng/ml): −16.0%
Progerin % DMSO ([3]; 500 ng/ml): 23.7%
Progerin Average ([3]; 500 ng/ml): 263.6* ng/mg of protein
Progerin, individual values ([3]; 500 ng/ml): 249.8 ng/mg of protein and 288.8 ng/mg of protein and 252.1 ng/mg of protein
Progerin Difference (%) ([3]; 500 ng/ml): −76.3%
Progerin % DMSO ([3]; 5000 ng/ml): 18.8%
Progerin Average ([3]; 5000 ng/ml): 208.2* ng/mg of protein
Progerin, individual values ([3]; 5000 ng/ml): 215.8 ng/mg of protein and 200.8 ng/mg of protein and 207.9 ng/mg of protein
Progerin Difference (%) ([3]; 5000 ng/ml): −81.2%
neo synthesis of progerin [3]: significantly decrease
melting point: 99 °C

COc1cc(/C=C/C(=O)NCC(O)c2ccc(O)cc2)cc(OC)c1OC(C)=O (stereo not shown) [Compound 39]
ORAC Antioxidant activity ([1]; average of 3 measurements): 20968 ± 992 μmol TE/g

CCCCCCCCCCCCCCCCOC(=O)/C=C/c1cc(OC)c(OC(C)=O)c(OC)c1 [Compound 4, 4-acetoxy-3,5-dimethoxy cinnamate of n-hexadecyl]
melting point: 82 °C

COc1cc(/C=C/C(=O)NC2CC2)cc(OC)c1OC(C)=O [Compound 34]
antioxidant activity in comparison with trolox [1]: 5 times

COc1cc(/C=C/C(=O)Nc2ccccc2)cc(OC)c1OC(C)=O [Compound 19, 4-acetoxy-3,5-dimethoxy-N-(phenyl)-cinnamamide]
melting point: 100 °C

From patent US9463338B2, “Derivatives of the sinapinic acid” (PHARMASYNTHESE, priority 2013, dated 2016)
